This note sets out measurements from ChEMBL document CHEMBL3868635, “Bromomethylthioindole Inspired Carbazole Hybrids as Promising Class of Anti-MRSA Agents” (ACS Med Chem Lett, 2016).

The subject of series [1] is Staphylococcus aureus. Kind of series: Antibacterial activity against methicillin-susceptible Staphylococcus aureus ATCC 29213 incubated for overnight measured after 20 to 24 hrs by broth microdilution method. Type of series: functional.
For series [2], the system named is Staphylococcus aureus. Kind of series: Antibacterial activity against methicillin-resistant Staphylococcus aureus ATCC 43300 incubated for overnight measured after 20 to 24 hrs by broth microdilution method. Type of series: functional. (In broth dilution the organism is exposed to a series of concentrations in liquid medium.)
In series [3] the test system is Staphylococcus aureus. Kind of series: Antibacterial activity against methicillin-susceptible Staphylococcus aureus M056 incubated for overnight measured after 20 to 24 hrs by broth microdilution method. Type of series: functional.
In series [4] the test system is Staphylococcus aureus. Kind of series: Antibacterial activity against methicillin-resistant Staphylococcus aureus M013 incubated for overnight measured after 20 to 24 hrs by broth microdilution method. Type of series: functional.
Series [5] has as its system Staphylococcus aureus. Nature of the series: Antibacterial activity against methicillin-resistant Staphylococcus aureus N043 incubated for overnight measured after 20 to 24 hrs by broth microdilution method. Type of series: functional.
The subject of series [6] is Staphylococcus aureus. Kind of series: Antibacterial activity against methicillin-resistant Staphylococcus aureus C217 incubated for overnight measured after 20 to 24 hrs by broth microdilution method. Type of series: functional.
The subject of series [7] is Staphylococcus aureus. Kind of series: Antibacterial activity against methicillin-resistant Staphylococcus aureus Y069 incubated for overnight measured after 20 to 24 hrs by broth microdilution method. The format is functional.
Series [8] relates to Staphylococcus aureus. Kind of series: Antibacterial activity against methicillin-resistant Staphylococcus aureus L166 incubated for overnight measured after 20 to 24 hrs by broth microdilution method. Type of series: functional.
For series [9], the system named is Staphylococcus aureus. Nature of the series: Antibacterial activity against methicillin-resistant Staphylococcus aureus Z234 incubated for overnight measured after 20 to 24 hrs by broth microdilution method. The format is functional.
Series [10] has as its system Staphylococcus aureus. Kind of series: Antibacterial activity against methicillin-resistant Staphylococcus aureus 4N216 incubated for overnight measured after 20 to 24 hrs by broth microdilution method. The format is functional.
Series [11] relates to Staphylococcus aureus. Kind of series: Antibacterial activity against vancomycin-intermediate and daptomycin-nonsusceptible methicillin-resistant Staphylococcus aureus Z172 incubated for overnight measured after 20 to 24 hrs by broth microdilution method. Type of series: functional.
The subject of series [12] is Enterococcus faecalis. Nature of the series: Antibacterial activity against vancomycin-resistant Enterococcus faecalis ATCC 51299 incubated for overnight measured after 20 to 24 hrs by broth microdilution method. The format is functional.
The subject of another series is Escherichia coli. Kind of series: Antibacterial activity against Escherichia coli ATCC 25922 incubated for overnight measured after 20 to 24 hrs by broth microdilution method. The format is functional.
A further series has as its system Pseudomonas aeruginosa. Nature of the series: Antibacterial activity against Pseudomonas aeruginosa ATCC 27853 incubated for overnight measured after 20 to 24 hrs by broth microdilution method. The format is functional.
Another series has as its system Klebsiella pneumoniae. Kind of series: Antibacterial activity against Klebsiella pneumoneae ATCC 700603 incubated for overnight measured after 20 to 24 hrs by broth microdilution method. The format is functional.
In another series the test system is Acinetobacter baumannii. Nature of the series: Antibacterial activity against Acinetobacter baumannii ATCC 19606 incubated for overnight measured after 20 to 24 hrs by broth microdilution method. Type of series: functional.
Series [13] concerns Mus musculus. Kind of series: Acute toxicity in ICR mouse assessed as increase in body weight at 100 mg/kg, iv measured daily for 2 weeks. Type of series: organism-based. As to conditions: in vivo, 336 h.
Series [14] concerns Mus musculus. Nature of the series: Acute toxicity in ICR mouse assessed as increase in survival at 100 mg/kg, iv measured after 2 weeks. Type of series: organism-based. The note with it: in vivo, 336 h.
Series [15] is described as follows: Cmax in ICR mouse plasma at 10 mg/kg, iv measured after 20 mins by LC-MS/MS analysis. Type of series: ADME, organism-based. More on the design: dose 10 mg/kg, route intravenous.
Series [16] in a line: Half life in ICR mouse plasma at 10 mg/kg, iv by LC-MS/MS analysis. Type of series: ADME, organism-based.
Series [17] can be described thus: Clearance in ICR mouse plasma at 10 mg/kg, iv by LC-MS/MS analysis. The format is ADME, organism-based.
Series [18] is described as follows: Volume of distribution at steady state in ICR mouse plasma at 10 mg/kg, iv by LC-MS/MS analysis. The format is ADME, organism-based. The note with it: read-out: Vdss.
Series [19] in a line: AUC (0 to 24 hrs) in ICR mouse plasma at 10 mg/kg, iv by LC-MS/MS analysis. Type of series: ADME, organism-based. More on the design: dose 10 mg/kg, time < 24 hr, route intravenous.
For series [20], the system named is Staphylococcus aureus. Nature of the series: Antibacterial activity against methicillin-resistant Staphylococcus aureus 4N216 infected in ICR mouse assessed as mouse survival rate at 20 mg/kg, iv administered as single dose 30 mins post-infection measured day 7 post infection relative to control. Type of series: functional. The note with it: 4N216, iv.
Series [21] has as its system Enterococcus faecalis. Kind of series: Potency index, ratio of […] MIC to compound MIC against vanomycin-resistant Enterococcus faecalis ATCC 51299.

The structures appear in SMILES notation. In brackets after ≈: the same amount, converted by molar mass. A value given as a limit tells only on which side of the number the result lay.

A word on the MIC: it is the lowest concentration that inhibits growth of the organism. Higher therefore signals a less susceptible organism. With `OC(Cn1cncn1)Cn1c2ccc(Br)cc2c2cc(Br)ccc21` (stereo unspecified), the minimum inhibitory concentration (MIC) against Staphylococcus aureus [1] and against Staphylococcus aureus [2] was 16 µg/mL (≈ 35.5 µM) throughout.

For the compound `OC(CNCCc1c[nH]c2cc(F)ccc12)Cn1c2ccc(Br)cc2c2cc(Br)ccc21` (stereo unspecified), the MIC was 1 µg/mL (≈ 1.79 µM) in the series on Staphylococcus aureus [1]; 1 µg/mL (≈ 1.79 µM) in the series on Staphylococcus aureus [2]; 1 to 2 µg/mL (≈ 1.79 to 3.58 µM) against Staphylococcus aureus [3]; 1 µg/mL (≈ 1.79 µM) against Staphylococcus aureus [4]; 1 µg/mL (≈ 1.79 µM) against Staphylococcus aureus [5]; 1 µg/mL (≈ 1.79 µM) with Staphylococcus aureus [6]. Also, the minimal inhibitory concentration (MIC) in the series on Staphylococcus aureus [7] stood at 1 µg/mL (≈ 1.79 µM); against Staphylococcus aureus [8], 1 µg/mL (≈ 1.79 µM); in the series with Staphylococcus aureus [9] it was 1 µg/mL (≈ 1.79 µM); with Staphylococcus aureus [10] it was 1 µg/mL (≈ 1.79 µM); against Staphylococcus aureus [11], 2 µg/mL (≈ 3.58 µM); with Enterococcus faecalis [12] it was 2 µg/mL (≈ 3.58 µM). Besides, the MIC in the series with Escherichia coli was 8 to 16 µg/mL (≈ 14.3 to 28.6 µM); against Pseudomonas aeruginosa, greater than 64 µg/mL; in the series with Klebsiella pneumoniae, greater than 64 µg/mL; in the series on Acinetobacter baumannii it was 16 µg/mL (≈ 28.6 µM). In addition, the Activity entry in the series on Mus musculus [13] and with Mus musculus [14] was “Non-Toxic” each time.

In the case of `OC(CNc1ccc(C(F)(F)F)cc1)Cn1c2ccc(Cl)cc2c2cc(Cl)ccc21` (stereo unspecified), the minimum inhibitory concentration (MIC) in the series with Staphylococcus aureus [3], with Staphylococcus aureus [4], against Staphylococcus aureus [5], in the series on Staphylococcus aureus [6], in the series with Staphylococcus aureus [7] and in the series on Staphylococcus aureus [8] was 1 µg/mL (≈ 2.21 µM) in each case. Also, the MIC in the series on Staphylococcus aureus [9] was 1 µg/mL (≈ 2.21 µM); in the series with Staphylococcus aureus [10], 1 µg/mL (≈ 2.21 µM); in the series with Staphylococcus aureus [11], 1 µg/mL (≈ 2.21 µM); with Enterococcus faecalis [12] it was 2 µg/mL (≈ 4.41 µM); with Escherichia coli, greater than 64 µg/mL; with Pseudomonas aeruginosa it was greater than 64 µg/mL. The MIC against Klebsiella pneumoniae and in the series on Acinetobacter baumannii was greater than 64 µg/mL each time.

A word on the Cmax: it is the peak of the concentration-time curve. For orientation: half-life means how long it takes for the measured level to halve. By clearance is commonly meant a measure of how efficiently the substance is removed, as volume per time. Lower therefore signals a low capacity for elimination. What is called AUC(0-t) is exposure summed from dosing to a finite time, without extrapolation to infinity. In the case of `CN[C@H](CC(C)C)C(=O)N[C@H]1C(=O)N[C@@H](CC(N)=O)C(=O)N[C@H]2C(=O)N[C@H]3C(=O)N[C@H](C(=O)N[C@H](C(=O)O)c4cc(O)cc(O)c4-c4cc3ccc4O)[C@H](O)c3ccc(c(Cl)c3)Oc3cc2cc(c3O[C@@H]2O[C@H](CO)[C@@H](O)[C@H](O)[C@H]2O[C@H]2C[C@](C)(N)[C@H](O)[C@H](C)O2)Oc2ccc(cc2Cl)[C@H]1O` [VANCOMYCIN], the values for the minimal inhibitory concentration (MIC) against Staphylococcus aureus [4] and in the series with Enterococcus faecalis [12] were no more than 0.5 µg/mL and 8 to 16 µg/mL (≈ 5.52 to 11 µM), respectively. Also, the Cmax in series [15] was 58.5 µg/mL. The compound further had a half-life in series [16] of 36 min. Moreover, in series [17], the clearance turned out to be 11.7 mL/min/kg. Besides, in series [18], the Vd was determined as 0.3 L/kg. The exposure AUC(0-t) at 24 h in series [19] worked out at 13700 ng·h/mL. Further, the survival at 20 mg/kg in the series with Staphylococcus aureus [20] came to 100%.

Turning to `OC(CNCCc1c[nH]cn1)Cn1c2ccc(Br)cc2c2cc(Br)ccc21` (stereo unspecified), the MIC with Staphylococcus aureus [1] and in the series on Staphylococcus aureus [2] was 4 µg/mL (≈ 8.13 µM) throughout.

With `OC(CNCc1c[nH]c2cc(F)ccc12)Cn1c2ccc(Br)cc2c2cc(Br)ccc21` (stereo unspecified), the MIC in the series on Staphylococcus aureus [1] and against Staphylococcus aureus [2] was 2 µg/mL (≈ 3.67 µM) each time.

On to `OC(CNCCc1c[nH]c2ccc(Cl)cc12)Cn1c2ccc(Br)cc2c2cc(Br)ccc21` (racemic), for which the MIC against Staphylococcus aureus [1], in the series with Staphylococcus aureus [2], against Staphylococcus aureus [3], with Staphylococcus aureus [4], with Staphylococcus aureus [5] and against Staphylococcus aureus [6] was 1 µg/mL (≈ 1.74 µM) each time. The MIC in the series on Staphylococcus aureus [7] stood at 1 µg/mL (≈ 1.74 µM); in the series on Staphylococcus aureus [8], 1 µg/mL (≈ 1.74 µM); with Staphylococcus aureus [9] it was 1 µg/mL (≈ 1.74 µM); against Staphylococcus aureus [10], 1 µg/mL (≈ 1.74 µM); in the series with Staphylococcus aureus [11] it was 2 µg/mL (≈ 3.47 µM); with Enterococcus faecalis [12], 1 µg/mL (≈ 1.74 µM). In addition, the minimum inhibitory concentration (MIC) in the series on Escherichia coli, against Pseudomonas aeruginosa, against Klebsiella pneumoniae and in the series on Acinetobacter baumannii was greater than 64 µg/mL each time. For the same compound, the Ratio in the series with Enterococcus faecalis [21] is on record as 4 - 18.

In the case of `OC(CNCCc1cccc(Cl)c1)Cn1c2ccc(Cl)cc2c2cc(Cl)ccc21` (stereo unspecified), the MIC against Staphylococcus aureus [3] was 1 µg/mL (≈ 2.23 µM); in the series with Staphylococcus aureus [4], 4 µg/mL (≈ 8.93 µM); in the series with Staphylococcus aureus [5], 4 µg/mL (≈ 8.93 µM); against Staphylococcus aureus [6] it was 4 µg/mL (≈ 8.93 µM); with Staphylococcus aureus [7], 4 µg/mL (≈ 8.93 µM); in the series on Staphylococcus aureus [8], 4 µg/mL (≈ 8.93 µM). In addition, the MIC is 4 µg/mL (≈ 8.93 µM) against Staphylococcus aureus [9]; 0.5 to 1 µg/mL (≈ 1.12 to 2.23 µM) against Staphylococcus aureus [10]; 4 µg/mL (≈ 8.93 µM) against Staphylococcus aureus [11]; 2 µg/mL (≈ 4.47 µM) with Enterococcus faecalis [12]; greater than 64 µg/mL in the series with Escherichia coli; greater than 64 µg/mL against Pseudomonas aeruginosa. The MIC in the series with Klebsiella pneumoniae and against Acinetobacter baumannii was greater than 64 µg/mL each time.

In the case of `O[C@@H](CNCCc1c[nH]c2cc(F)ccc12)Cn1c2ccc(Cl)cc2c2cc(Cl)ccc21`, the minimum inhibitory concentration (MIC) with Staphylococcus aureus [1] and against Staphylococcus aureus [2] was 0.5 to 1 µg/mL (≈ 1.06 to 2.13 µM) throughout.

For the compound `OC(CNc1nc(Cl)nc2ccccc12)Cn1c2ccc(Br)cc2c2cc(Br)ccc21` (stereo unspecified), the MIC against Staphylococcus aureus [1] and in the series on Staphylococcus aureus [2] was greater than 32 µg/mL each time.
